Assay [1] has as its target T1, MRGPRX2 (Homo sapiens, UniProt Q96LB1).
T1 sequence (Q96LB1 1-330): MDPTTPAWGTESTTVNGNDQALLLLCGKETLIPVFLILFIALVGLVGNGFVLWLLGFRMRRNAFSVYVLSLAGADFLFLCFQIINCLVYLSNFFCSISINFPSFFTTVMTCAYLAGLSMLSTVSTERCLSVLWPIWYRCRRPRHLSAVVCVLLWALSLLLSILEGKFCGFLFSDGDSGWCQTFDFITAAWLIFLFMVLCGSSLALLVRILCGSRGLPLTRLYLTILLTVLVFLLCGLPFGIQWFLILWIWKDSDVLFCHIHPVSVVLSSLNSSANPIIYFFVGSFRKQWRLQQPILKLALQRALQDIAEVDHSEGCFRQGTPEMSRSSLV
Description: MRGPRX2 IP1 HTRF assay. In kind it is cell-based. The arrangement: host or cells: CHO-K1. To be noted: CHO-K1 cells stably expressing human MRGPRX2; IP1 accumulation; agonist Cortistatin 14 1 μM. Put shortly:
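CHO-K1 cells stably expressing human MRGPRX2, preincubated with compound 1 h at 37 °C, then stimulated with 1 μM Cortistatin 14 for 1 h. IP1 measured by HTRF against standard curve, normalized to DMSO and reference antagonist controls; IC50 from 3- or 4-parameter Hill fit.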
In general terms: In TR-FRET formats the signal depends on donor and acceptor labels being close together.

Assay [2] concerns the target T1, MRGPRX2. Description: MRGPRX2 FLIPR calcium mobilization assay. In kind it is cell-based. The arrangement: host or cells: CHO-K1. To be noted: CHO-K1 cells stably expressing human MRGPRX2; Ca2+ release; agonist Cortistatin-14 at EC80. On the procedure:
Example A. MRGPRX2 FLIPR Calcium Mobilization Assay
Chinese hamster ovary (CHO-K1) cells stably expressing human MRGPRX2 were purchased from Genescript (Piscataway, NJ). The cells were maintained in culture medium (Ham's F-12K) containing 10% (v/v) FBS, 200 μg/mL Zeocin, 100 units/mL penicillin G and 100 μg/mL streptomycin (Life Technologies, Carlsbad, CA). For the assay, the cells were harvested and resuspended with culture medium without Zeocin before plating at 8000 cells per well in 20 μL in 384-well black clear bottom cell culture plates (VWR, Radnor, PA). After 24 hour culture at 37° C. and 5% CO2, the cells were loaded with 20 μL/well of calcium dye (FLIPR Calcium 6 Assay Kit, Molecular Devices, San Jose, CA) diluted in loading buffer (1× Hank's Balanced Salt Solution (HBSS), 5 mM probenecid, 20 mM 4-(2-hydroxyethyl)-1-piperazineethanesulfonic acid (HEPES), pH 7.4, VWR, Radnor, PA) followed with 45 min. incubation at 37° C. and 40 min. at r.t. in the dark. Cells were then treated with the addition of 10 uL/well test compounds with a range of increasing concentrations diluted in the assay buffer (1×HBSS, 20 mM HEPES, pH 7.4, VWR, Radnor, PA) with FLIPR Penta (Molecular Devices. San Jose, CA) and incubated for 30 min. at r.t. Ca^2+ release was measured with FLIPR Penta with 10 seconds basal fluorescence measurement, then 12.5 μL of 5× agonist Cortistatin-14 (Tocris, Minneapolis, MN) at final concentration corresponding to the EC80 were added followed with continued fluorescence signal monitoring for an additional 110 seconds. The base line adjusted (median of first 10s base line) max value of the Relative Fluorescence Unit (RFU) was plotted against compound concentrations. Wells with no compound were served as the positive controls, and wells with high concentration of reference antagonist were used as negative controls. IC50 curves were globally fitted with 3- or 4-parameter Hill equation in a Genedata Screener (Genedata Basel, Switzerland).
In general terms: Calcium assays in cells follow changes in intracellular calcium, usually with a dye or a luminescent sensor.

The structures appear in SMILES notation.

As usually defined, the IC50 is the concentration that gives 50% inhibition. Consider `NS(=O)(=O)N1CCC(CNc2nc(Cl)cc3nc(C(F)(F)F)cn23)(c2ccccc2)CC1` [Example 5, 4-(((7-Chloro-2-(trifluoromethyl)imidazo[1,2-c]pyrimidin-5-yl)amino)methyl)-4-phenylpiperidine-1-sulfonamide], for which the IC50 at MRGPRX2 [1] and on MRGPRX2 [2] was 0.1 to 100 nM each time.
For `Cc1cc(NCC2(c3ccccc3)CCN(C(N)=O)CC2)n2nc(C(F)(F)F)nc2n1` [Example 7, 4-(((5-Methyl-2-(trifluoromethyl)-[1,2,4]triazolo[1,5-a]pyrimidin-7-yl)amino)methyl)-4-phenylpiperidine-1-carboxamide], the IC50 was in the range of 100 to 1000 nM on MRGPRX2 [1] and 0.1 to 100 nM on MRGPRX2 [2].
Consider `NC(=O)N1CC(CNc2cc(C(F)(F)F)nc3cc(C(F)(F)F)nn23)(n2cc(F)cn2)C1` [Example 10, 3-(((2,5-Bis(trifluoromethyl)pyrazolo[1,5-a]pyrimidin-7-yl)amino)methyl)-3-(4-fluoro-1H-pyrazol-1-yl)azetidine-1-carboxamide], for which the 50% inhibitory concentration (IC50) on MRGPRX2 [1] and on MRGPRX2 [2] was 0.1 to 100 nM throughout.
On to `NS(=O)(=O)N1CC(CNc2cccc3nc(C(F)(F)F)nn23)(n2cc(F)cn2)C1` [Example 11, 3-(4-Fluoro-1H-pyrazol-1-yl)-3-(((2-(trifluoromethyl)-[1,2,4]triazolo[1,5-a]pyridin-5-yl)amino)methyl)azetidine-1-sulfonamide], for which the IC50 on MRGPRX2 [1] and on MRGPRX2 [2] was 0.1 to 100 nM throughout.
Take `NC(=O)N1CC(CNc2cccc3nc(C(F)(F)F)nn23)(n2cc(F)cn2)C1` [Example 12, 3-(4-Fluoro-1H-pyrazol-1-yl)-3-(((2-(trifluoromethyl)-[1,2,4]triazolo[1,5-a]pyridin-5-yl)amino)methyl)azetidine-1-carboxamide]: the IC50 was in the range of 100 to 1000 nM at MRGPRX2 [1] and 0.1 to 100 nM on MRGPRX2 [2].
Consider `CNC(=O)N1CCC(CNc2cccc3nc(C(F)(F)F)nn23)(c2ccccc2)CC1` [Example 13, N-Methyl-4-phenyl-4-(((2-(trifluoromethyl)-[1,2,4]triazolo[1,5-a]pyridin-5-yl)amino)methyl)piperidine-1-carboxamide], for which the IC50 at MRGPRX2 [1] and on MRGPRX2 [2] was 0.1 to 100 nM in each case.
For the compound `COC(=O)N1CCC(CNc2cc(C(F)(F)F)nc3cc(C(F)(F)F)nn23)(c2ccccc2)CC1` [Example 14, Methyl 4-(((2,5-bis(trifluoromethyl)pyrazolo[1,5-a]pyrimidin-7-yl)amino)methyl)-4-phenylpiperidine-1-carboxylate], the IC50 fell in the range of 100 to 1000 nM at MRGPRX2 [1] and 0.1 to 100 nM on MRGPRX2 [2].
Regarding `CNC(=O)N1CCC(CNc2cc(C(F)(F)F)nc3cc(C(F)(F)F)nn23)(c2ccccc2)CC1` [Example 15, 4-(((2,5-Bis(trifluoromethyl)pyrazolo[1,5-a]pyrimidin-7-yl)amino)methyl)-N-methyl-4-phenylpiperidine-1-carboxamide], the 50% inhibitory concentration (IC50) at MRGPRX2 [1] and at MRGPRX2 [2] was 0.1 to 100 nM in each case.
`NC(=O)N1CCC(CNc2cc(C(F)(F)F)nc3cc(C(F)(F)F)nn23)(c2ccccc2)CC1` [Example 16, 4-(((2,5-Bis(trifluoromethyl)pyrazolo[1,5-a]pyrimidin-7-yl)amino)methyl)-4-phenylpiperidine-1-carboxamide]: the IC50 on MRGPRX2 [1] and on MRGPRX2 [2] was 0.1 to 100 nM each time.
For the compound `CN1CCC(CNc2cc(C(F)(F)F)nc3cc(C(F)(F)F)nn23)(c2ccccc2)CC1` [Example 17, N-((1-Methyl-4-phenylpiperidin-4-yl)methyl)-2,5-bis(trifluoromethyl)pyrazolo[1,5-a]pyrimidin-7-amine], the IC50 at MRGPRX2 [1] and at MRGPRX2 [2] was 0.1 to 100 nM each time.
In the case of `O=C(N1CCC(CNc2cccc3nc(C(F)(F)F)cn23)(c2ccccc2)CC1)N1CC(F)(F)C1` [Example 19, (3,3-Difluoroazetidin-1-yl)(4-phenyl-4-(((2-(trifluoromethyl)imidazo[1,2-a]pyridin-5-yl)amino)methyl)piperidin-1-yl)methanone], the IC50 on MRGPRX2 [1] and on MRGPRX2 [2] was 0.1 to 100 nM in each case.
On to `NC(=O)N1CCC(CNc2cc(C(F)(F)F)nc3cc(Br)nn23)(c2ccc(F)cn2)CC1` [Example 22, 4-(((2-Bromo-5-(trifluoromethyl)pyrazolo[1,5-a]pyrimidin-7-yl)amino)methyl)-4-(5-fluoropyridin-2-yl)piperidine-1-carboxamide], for which the concentration for half-maximal inhibition (IC50) at MRGPRX2 [1] and on MRGPRX2 [2] was 0.1 to 100 nM throughout.
For the compound `OCCN1CCC(CNc2cccc3nc(C(F)(F)F)cn23)(c2ccc(F)cn2)CC1` [Example 23, 2-(4-(5-Fluoropyridin-2-yl)-4-(((2-(trifluoromethyl)imidazo[1,2-a]pyridin-5-yl)amino)methyl)piperidin-1-yl)ethan-1-ol], the IC50 on MRGPRX2 [1] and at MRGPRX2 [2] was 100 to 1000 nM each time.
As for `N#CCC(=O)N1CCC(CNc2cccc3nc(C(F)(F)F)cn23)(c2ccc(F)cn2)CC1` [Example 24, 3-(4-(5-Fluoropyridin-2-yl)-4-(((2-(trifluoromethyl)imidazo[1,2-a]pyridin-5-yl)amino)methyl)piperidin-1-yl)-3-oxopropanenitrile], the IC50 at MRGPRX2 [1] lay in the range of 100 to 1000 nM; at MRGPRX2 [2] it was 0.1 to 100 nM.
`CNC(=O)N1CCC(CNc2cccc3nc(C(F)(F)C(F)(F)F)cn23)(c2ccccc2)CC1` [Example 26, N-Methyl-4-(((2-(perfluoroethyl)imidazo[1,2-a]pyridin-5-yl)amino)methyl)-4-phenylpiperidine-1-carboxamide]: the IC50 on MRGPRX2 [1] and on MRGPRX2 [2] was 0.1 to 100 nM throughout.
`CNC(=O)N1CCC(CNc2cc(Cl)cc3nc(C(F)(F)F)cn23)(c2ccccc2)CC1` [Example 27, 4-(((7-Chloro-2-(trifluoromethyl)imidazo[1,2-a]pyridin-5-yl)amino)methyl)-N-methyl-4-phenylpiperidine-1-carboxamide]: the IC50 at MRGPRX2 [1] and on MRGPRX2 [2] was 0.1 to 100 nM throughout.
Consider `CNC(=O)N1CCC(CNc2cc(C)cc3nc(C(F)(F)F)cn23)(c2ccccc2)CC1` [Example 28, N-Methyl-4-(((7-methyl-2-(trifluoromethyl)imidazo[1,2-a]pyridin-5-yl)amino)methyl)-4-phenylpiperidine-1-carboxamide], for which the IC50 on MRGPRX2 [1] and at MRGPRX2 [2] was 0.1 to 100 nM throughout.
For the compound `CNC(=O)N1CCC(CNc2cccc3nc(C(C)C)cn23)(c2ccccc2)CC1` [Example 29, 4-(((2-Isopropylimidazo[1,2-a]pyridin-5-yl)amino)methyl)-N-methyl-4-phenylpiperidine-1-carboxamide], the results for the IC50 on MRGPRX2 [1] and on MRGPRX2 [2] were 100 to 1000 nM and 0.1 to 100 nM, respectively.
For `NS(=O)(=O)N1CC(CNc2cccc3nc(C(F)(F)F)cn23)(c2ccc(F)cc2)C1` [Example 34, 3-(4-Fluorophenyl)-3-(((2-(trifluoromethyl)imidazo[1,2-a]pyridin-5-yl)amino)methyl)azetidine-1-sulfonamide], in that order: 0.1 to 100 nM and 0.1 to 100 nM.
Regarding `NC(=O)N1CC(CNc2cccc3nc(C(F)(F)F)cn23)(c2ccc(F)cc2)C1` [Example 35, 3-(4-Fluorophenyl)-3-(((2-(trifluoromethyl)imidazo[1,2-a]pyridin-5-yl)amino)methyl)azetidine-1-carboxamide], the IC50 on MRGPRX2 [1] and at MRGPRX2 [2] was 0.1 to 100 nM throughout.
With `FC(F)(F)c1cn2c(NCC3(c4ccc(Br)cc4)CCC3)cccc2n1` [Example 38, N-((1-(4-Bromophenyl)cyclobutyl)methyl)-2-(trifluoromethyl)imidazo[1,2-a]pyridin-5-amine], the IC50 at MRGPRX2 [1] and on MRGPRX2 [2] was 0.1 to 100 nM throughout.
Turning to `Cc1cc2nc(C(F)(F)F)cc(NCC3(c4ccccc4)CCOC3)n2n1` (centres unmarked) [Example 77, 2-Methyl-N-((3-phenyltetrahydrofuran-3-yl)methyl)-5-(trifluoromethyl)pyrazolo[1,5-a]pyrimidin-7-amine], the IC50 lay in the range of 100 to 1000 nM on MRGPRX2 [1] and 0.1 to 100 nM at MRGPRX2 [2].

The record behind these values is US20250084087A1, “BICYCLIC HETEROCYCLES AS MRGPRX2 ANTAGONISTS” (Incyte Corporation, priority 2023, published 2025).
